Test results taken from ChEMBL document CHEMBL1201862, “PubChem BioAssay data set” (2004).
Active and inactive are the calls of the source.

Tests used:
Assay type in all cases: functional
[1] = target: T1, Heat shock factor protein 1 (Mus musculus, UniProt P38532); test: decrease of HSF1-responsive luciferase luminescence – cell-based, NIH3T3, dose retest, confirmation (AID 2382);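 further: NIH3T3 fibroblasts with HSF1-driven luciferase reporter stressed by proteasome inhibitor MG132; luminescence from HSF1-driven luciferase expression after 8 hours of MG132 stress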
T1 sequence (P38532 whole entry): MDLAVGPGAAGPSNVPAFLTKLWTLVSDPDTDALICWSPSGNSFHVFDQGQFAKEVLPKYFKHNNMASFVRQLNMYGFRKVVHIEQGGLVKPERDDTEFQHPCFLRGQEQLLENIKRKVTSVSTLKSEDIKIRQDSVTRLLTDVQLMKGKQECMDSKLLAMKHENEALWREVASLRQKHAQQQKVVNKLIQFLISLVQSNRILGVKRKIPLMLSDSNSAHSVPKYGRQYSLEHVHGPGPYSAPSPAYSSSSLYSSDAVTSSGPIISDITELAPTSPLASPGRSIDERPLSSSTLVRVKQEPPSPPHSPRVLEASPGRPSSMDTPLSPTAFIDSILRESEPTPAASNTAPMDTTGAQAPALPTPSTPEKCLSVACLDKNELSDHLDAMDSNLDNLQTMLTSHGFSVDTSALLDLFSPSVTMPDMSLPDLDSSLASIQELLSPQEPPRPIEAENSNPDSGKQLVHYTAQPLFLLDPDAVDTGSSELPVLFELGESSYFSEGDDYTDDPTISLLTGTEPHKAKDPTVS

[2] = tested on: Vero; test: viability of Vero cells under compound – cytotoxicity control for flavivirus capping enzyme inhibitors (AID 588742); details: Chlorocebus sabaeus
[3] = target: Genome polyprotein (dengue virus type 2, UniProt P29990); test: flavivirus cap methylation enzyme inhibition – biochemical, confirmation dose response, primary screen (AID 588689)
[4] = target: Insulin receptor (Homo sapiens, UniProt P06213);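 further: insulin receptor kinase tested as one member of a kinome-wide kinase panel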
[5] = target: Calcium/calmodulin-dependent protein kinase type II subunit delta (Homo sapiens, UniProt Q13557)
[6] = target: Fibroblast growth factor receptor 3 (Homo sapiens, UniProt P22607)
[7] = target: Serine/threonine-protein kinase D2 (Homo sapiens, UniProt Q9BZL6);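 further: measured against PRKD2 as one member of a kinome-wide kinase profiling panel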
[8] = target: Calcium/calmodulin-dependent protein kinase type II subunit beta (Homo sapiens, UniProt Q13554)
[9] = target: cAMP-dependent protein kinase catalytic subunit PRKX (Homo sapiens, UniProt P51817)
[10] = target: Maternal embryonic leucine zipper kinase (Homo sapiens, UniProt Q14680)
[11] = target: Serine/threonine-protein kinase DCLK1 (Homo sapiens, UniProt O15075);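 further: affinity for DCLK1 (listed as DCAMKL1) measured as one member of a kinome-wide kinase profiling panel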
[12] = target: BDNF/NT-3 growth factors receptor (Homo sapiens, UniProt Q16620);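 further: NTRK2 measured as one member of a broad kinome-wide kinase profiling panel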
[13] = target: Homeodomain-interacting protein kinase 4 (Homo sapiens, UniProt Q8NE63)
[14] = target: Macrophage colony-stimulating factor 1 receptor (Homo sapiens, UniProt P07333);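 further: value comes from the Navigating the Kinome screening panel, CSF1R member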
[15] = target: STE20-like serine/threonine-protein kinase (Homo sapiens, UniProt Q9H2G2)
[16] = target: Protein kinase C gamma type (Homo sapiens, UniProt P05129)
[17] = target: Protein kinase C delta type (Homo sapiens, UniProt Q05655)
[18] = target: T2, Tyrosine-protein kinase receptor TYRO3 (Homo sapiens, UniProt Q06418);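 further: TYRO3 value obtained as one member of a kinome-wide profiling panel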
T2 sequence (Q06418 whole entry): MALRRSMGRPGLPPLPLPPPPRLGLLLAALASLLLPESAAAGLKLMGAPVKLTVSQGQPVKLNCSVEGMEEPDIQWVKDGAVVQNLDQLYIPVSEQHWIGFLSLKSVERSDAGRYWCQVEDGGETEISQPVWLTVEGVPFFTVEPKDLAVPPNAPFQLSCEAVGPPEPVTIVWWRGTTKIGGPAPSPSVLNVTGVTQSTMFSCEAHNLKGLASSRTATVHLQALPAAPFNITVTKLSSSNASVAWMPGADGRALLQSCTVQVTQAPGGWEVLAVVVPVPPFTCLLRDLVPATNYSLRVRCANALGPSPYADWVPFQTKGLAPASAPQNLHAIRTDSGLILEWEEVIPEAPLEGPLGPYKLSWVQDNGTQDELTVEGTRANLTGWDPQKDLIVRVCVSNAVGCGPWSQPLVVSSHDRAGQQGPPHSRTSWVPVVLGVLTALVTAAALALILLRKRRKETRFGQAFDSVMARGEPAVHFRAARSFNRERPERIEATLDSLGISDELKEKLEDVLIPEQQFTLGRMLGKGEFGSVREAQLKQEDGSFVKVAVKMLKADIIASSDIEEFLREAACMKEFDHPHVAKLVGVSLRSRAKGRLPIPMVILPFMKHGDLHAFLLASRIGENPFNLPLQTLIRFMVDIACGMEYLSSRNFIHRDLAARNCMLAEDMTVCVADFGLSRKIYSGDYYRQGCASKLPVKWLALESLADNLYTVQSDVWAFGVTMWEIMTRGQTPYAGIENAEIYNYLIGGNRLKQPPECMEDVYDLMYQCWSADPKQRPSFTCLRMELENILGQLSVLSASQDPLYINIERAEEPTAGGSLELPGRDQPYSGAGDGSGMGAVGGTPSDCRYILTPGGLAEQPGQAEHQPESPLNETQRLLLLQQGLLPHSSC

[19] = target: Tyrosine-protein kinase JAK2 (Homo sapiens, UniProt O60674);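 further: JAK2 tested as one member of a kinase panel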
[20] = target: Cyclin-dependent kinase 9 (Homo sapiens, UniProt P50750);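 further: value from the CDK9 entry of a kinome-spanning kinase panel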
[21] = target: T3, Aurora kinase A (Homo sapiens, UniProt O14965);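 further: value from the Navigating the Kinome kinase panel profiling, panel entry STK6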
T3 sequence (O14965 whole entry): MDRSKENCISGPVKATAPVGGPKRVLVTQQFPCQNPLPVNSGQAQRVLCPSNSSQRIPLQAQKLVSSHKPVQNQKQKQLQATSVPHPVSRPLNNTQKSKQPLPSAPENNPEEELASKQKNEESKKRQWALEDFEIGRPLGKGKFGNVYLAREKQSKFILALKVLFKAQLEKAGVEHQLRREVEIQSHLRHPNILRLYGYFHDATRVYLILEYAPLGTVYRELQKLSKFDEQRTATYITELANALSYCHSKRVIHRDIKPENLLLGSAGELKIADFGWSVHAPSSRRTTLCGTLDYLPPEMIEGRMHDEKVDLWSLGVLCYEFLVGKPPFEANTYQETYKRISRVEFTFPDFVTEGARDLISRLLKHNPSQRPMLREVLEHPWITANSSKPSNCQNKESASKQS

Sequence of Maternal embryonic leucine zipper kinase (Q14680 whole entry): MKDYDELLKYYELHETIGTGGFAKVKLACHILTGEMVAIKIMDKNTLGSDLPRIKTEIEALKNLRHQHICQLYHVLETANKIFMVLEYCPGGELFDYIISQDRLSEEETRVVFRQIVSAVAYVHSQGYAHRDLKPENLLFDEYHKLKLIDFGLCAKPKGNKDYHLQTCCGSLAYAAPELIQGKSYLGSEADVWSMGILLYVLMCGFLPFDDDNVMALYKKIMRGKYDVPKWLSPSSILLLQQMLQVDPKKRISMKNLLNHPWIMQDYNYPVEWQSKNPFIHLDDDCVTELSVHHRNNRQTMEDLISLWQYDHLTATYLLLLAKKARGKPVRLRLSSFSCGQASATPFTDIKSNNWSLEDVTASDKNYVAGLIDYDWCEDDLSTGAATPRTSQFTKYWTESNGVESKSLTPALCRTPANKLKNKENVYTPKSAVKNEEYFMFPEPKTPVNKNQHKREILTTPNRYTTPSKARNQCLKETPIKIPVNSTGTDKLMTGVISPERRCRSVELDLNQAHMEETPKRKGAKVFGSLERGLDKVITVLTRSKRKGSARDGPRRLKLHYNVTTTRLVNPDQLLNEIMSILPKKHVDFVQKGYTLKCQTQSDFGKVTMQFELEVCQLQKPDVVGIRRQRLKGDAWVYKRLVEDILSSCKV
Sequence of BDNF/NT-3 growth factors receptor (Q16620 whole entry): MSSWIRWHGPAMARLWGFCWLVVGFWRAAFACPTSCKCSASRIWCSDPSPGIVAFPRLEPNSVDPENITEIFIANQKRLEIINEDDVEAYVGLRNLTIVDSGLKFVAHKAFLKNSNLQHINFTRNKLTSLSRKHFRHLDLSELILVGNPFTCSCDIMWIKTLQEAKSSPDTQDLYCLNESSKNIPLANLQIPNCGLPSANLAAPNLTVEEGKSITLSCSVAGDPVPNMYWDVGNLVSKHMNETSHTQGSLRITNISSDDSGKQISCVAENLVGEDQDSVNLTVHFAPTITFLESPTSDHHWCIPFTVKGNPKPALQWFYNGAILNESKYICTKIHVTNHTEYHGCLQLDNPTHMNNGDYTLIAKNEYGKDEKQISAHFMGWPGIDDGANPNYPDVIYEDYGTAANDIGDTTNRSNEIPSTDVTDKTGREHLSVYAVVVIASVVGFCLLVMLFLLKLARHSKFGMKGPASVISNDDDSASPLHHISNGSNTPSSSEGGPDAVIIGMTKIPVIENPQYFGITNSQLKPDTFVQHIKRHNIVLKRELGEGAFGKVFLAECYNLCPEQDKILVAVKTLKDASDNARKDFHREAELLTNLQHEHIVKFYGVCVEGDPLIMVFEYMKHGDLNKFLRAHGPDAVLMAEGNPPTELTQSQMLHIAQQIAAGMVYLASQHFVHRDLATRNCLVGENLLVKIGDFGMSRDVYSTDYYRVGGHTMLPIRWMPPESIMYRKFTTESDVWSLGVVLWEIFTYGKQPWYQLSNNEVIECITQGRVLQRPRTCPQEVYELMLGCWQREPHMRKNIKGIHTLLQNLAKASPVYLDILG
Sequence of Homeodomain-interacting protein kinase 4 (Q8NE63 whole entry): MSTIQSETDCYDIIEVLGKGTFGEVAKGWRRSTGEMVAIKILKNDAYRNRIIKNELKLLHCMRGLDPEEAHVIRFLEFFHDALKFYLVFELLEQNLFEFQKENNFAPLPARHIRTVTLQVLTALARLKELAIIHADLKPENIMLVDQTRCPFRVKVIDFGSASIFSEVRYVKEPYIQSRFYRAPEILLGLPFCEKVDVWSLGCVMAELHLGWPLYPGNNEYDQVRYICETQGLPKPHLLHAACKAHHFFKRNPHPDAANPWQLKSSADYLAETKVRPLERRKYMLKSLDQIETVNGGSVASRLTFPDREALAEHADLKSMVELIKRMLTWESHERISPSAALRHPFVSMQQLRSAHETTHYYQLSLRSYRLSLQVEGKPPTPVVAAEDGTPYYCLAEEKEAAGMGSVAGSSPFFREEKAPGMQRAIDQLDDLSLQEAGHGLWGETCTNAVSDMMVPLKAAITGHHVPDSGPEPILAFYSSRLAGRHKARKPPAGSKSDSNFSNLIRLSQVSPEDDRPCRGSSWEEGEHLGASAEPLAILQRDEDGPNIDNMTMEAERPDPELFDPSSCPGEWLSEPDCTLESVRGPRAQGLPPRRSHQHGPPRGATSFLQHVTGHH
Sequence of STE20-like serine/threonine-protein kinase (Q9H2G2 whole entry): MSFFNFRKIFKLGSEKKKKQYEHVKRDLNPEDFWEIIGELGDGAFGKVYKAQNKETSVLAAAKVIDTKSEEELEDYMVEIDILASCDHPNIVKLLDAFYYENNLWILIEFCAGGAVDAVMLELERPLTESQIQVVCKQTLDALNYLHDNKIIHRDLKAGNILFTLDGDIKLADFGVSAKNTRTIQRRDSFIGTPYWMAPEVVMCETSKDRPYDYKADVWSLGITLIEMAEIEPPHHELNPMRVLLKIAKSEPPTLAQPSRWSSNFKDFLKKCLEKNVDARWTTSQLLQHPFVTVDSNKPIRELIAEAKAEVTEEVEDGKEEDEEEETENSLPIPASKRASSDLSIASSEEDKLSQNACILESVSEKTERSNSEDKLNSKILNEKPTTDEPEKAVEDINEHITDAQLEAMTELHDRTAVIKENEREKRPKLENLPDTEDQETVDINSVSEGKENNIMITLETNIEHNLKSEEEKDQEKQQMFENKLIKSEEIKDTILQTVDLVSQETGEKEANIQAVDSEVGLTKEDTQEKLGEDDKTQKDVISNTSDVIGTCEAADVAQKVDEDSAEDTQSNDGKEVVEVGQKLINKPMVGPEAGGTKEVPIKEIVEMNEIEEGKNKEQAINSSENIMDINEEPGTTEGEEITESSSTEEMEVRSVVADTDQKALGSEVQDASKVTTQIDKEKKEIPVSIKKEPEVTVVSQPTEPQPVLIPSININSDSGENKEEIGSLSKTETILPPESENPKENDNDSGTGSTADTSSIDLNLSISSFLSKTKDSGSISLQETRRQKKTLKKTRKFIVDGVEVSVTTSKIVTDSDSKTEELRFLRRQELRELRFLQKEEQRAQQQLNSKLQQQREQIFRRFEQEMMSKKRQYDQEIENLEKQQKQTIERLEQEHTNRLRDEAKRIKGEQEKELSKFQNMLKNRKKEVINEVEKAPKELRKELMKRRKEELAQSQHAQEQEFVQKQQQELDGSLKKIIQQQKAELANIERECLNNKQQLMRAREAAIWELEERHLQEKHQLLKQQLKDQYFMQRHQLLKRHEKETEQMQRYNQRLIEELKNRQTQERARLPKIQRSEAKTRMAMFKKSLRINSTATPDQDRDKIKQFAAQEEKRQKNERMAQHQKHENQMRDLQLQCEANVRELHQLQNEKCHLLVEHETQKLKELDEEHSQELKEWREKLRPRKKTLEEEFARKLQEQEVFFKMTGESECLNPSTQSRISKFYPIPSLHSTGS
Sequence of Tyrosine-protein kinase JAK2 (O60674 whole entry): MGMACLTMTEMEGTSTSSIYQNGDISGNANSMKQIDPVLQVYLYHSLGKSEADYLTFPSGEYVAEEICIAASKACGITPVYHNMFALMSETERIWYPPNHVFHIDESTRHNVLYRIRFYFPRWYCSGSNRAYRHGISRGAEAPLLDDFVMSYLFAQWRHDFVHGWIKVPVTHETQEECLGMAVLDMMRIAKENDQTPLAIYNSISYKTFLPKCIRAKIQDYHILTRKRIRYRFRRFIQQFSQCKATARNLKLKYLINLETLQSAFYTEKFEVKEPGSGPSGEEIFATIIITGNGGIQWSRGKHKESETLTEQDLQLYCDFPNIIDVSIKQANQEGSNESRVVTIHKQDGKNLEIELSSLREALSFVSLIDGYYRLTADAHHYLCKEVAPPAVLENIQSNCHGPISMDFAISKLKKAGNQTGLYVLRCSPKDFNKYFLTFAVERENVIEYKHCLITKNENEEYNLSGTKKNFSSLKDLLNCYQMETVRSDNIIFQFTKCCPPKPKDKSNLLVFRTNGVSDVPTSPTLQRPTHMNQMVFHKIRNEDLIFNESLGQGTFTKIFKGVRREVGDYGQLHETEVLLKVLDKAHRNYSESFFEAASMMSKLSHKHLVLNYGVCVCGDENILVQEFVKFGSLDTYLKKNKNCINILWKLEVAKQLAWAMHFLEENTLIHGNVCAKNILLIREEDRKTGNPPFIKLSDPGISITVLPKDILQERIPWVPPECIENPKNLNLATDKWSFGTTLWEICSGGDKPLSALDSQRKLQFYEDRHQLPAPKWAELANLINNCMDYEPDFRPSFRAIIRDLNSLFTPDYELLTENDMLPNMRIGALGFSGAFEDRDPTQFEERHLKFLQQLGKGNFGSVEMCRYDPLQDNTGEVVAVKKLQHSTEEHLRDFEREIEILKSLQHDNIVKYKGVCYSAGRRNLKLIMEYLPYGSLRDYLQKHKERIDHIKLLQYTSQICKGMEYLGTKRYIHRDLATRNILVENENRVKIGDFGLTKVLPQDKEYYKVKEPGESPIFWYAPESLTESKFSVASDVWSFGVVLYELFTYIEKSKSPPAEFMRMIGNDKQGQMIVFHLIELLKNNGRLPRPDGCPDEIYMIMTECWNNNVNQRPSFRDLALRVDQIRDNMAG
Sequence of Cyclin-dependent kinase 9 (P50750 whole entry): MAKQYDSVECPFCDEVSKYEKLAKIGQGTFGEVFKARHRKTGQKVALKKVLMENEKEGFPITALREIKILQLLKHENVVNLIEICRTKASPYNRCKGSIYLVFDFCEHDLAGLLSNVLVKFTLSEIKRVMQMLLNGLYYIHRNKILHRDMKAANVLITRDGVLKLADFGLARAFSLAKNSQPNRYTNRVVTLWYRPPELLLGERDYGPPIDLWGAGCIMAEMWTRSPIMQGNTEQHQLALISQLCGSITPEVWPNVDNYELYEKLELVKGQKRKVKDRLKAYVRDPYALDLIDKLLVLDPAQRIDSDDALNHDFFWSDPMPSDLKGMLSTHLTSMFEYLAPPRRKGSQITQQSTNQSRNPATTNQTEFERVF

Row | Ki [4] | Ki [14] | SMILES | EC50 [1] | CC50 [2] | IC50 [3] | Ki [5] | Ki [6] | Ki [7] | Ki [8] | Ki [9] | Ki [10] | Ki [11] | Ki [12] | Ki [13] | Ki [15] | Ki [16] | Ki [17] | Ki [18] | Ki [19] | Ki [20] | also measured
1 |  |  | COC(=O)CCS(=O)(=O)c1nc(-c2ccccc2)cc(C(F)(F)F)n1 | 9.59 µM (inconclusive) |  |  |  |  |  |  |  |  |  |  |  |  |  |  |  |  |  | 
2 |  |  | O=C(O)c1ccc(NC2=C(Cl)C(=O)c3ccccc3C2=O)cc1 | 6.24 µM (active) | 28.3 µM (active) | 7.76 µM (active) |  |  |  |  |  |  |  |  |  |  |  |  |  |  |  | 
3 | > 5.01 µM (inactive) | > 2.51 µM (inactive) | Cc1ccc2nccc(NC(=O)Nc3cccc(C(F)(F)F)n3)c2c1 |  |  |  | > 6.31 µM (inactive) | > 2 µM (inactive) | > 10 µM (inactive) | > 7.94 µM (inactive) | > 2.51 µM (inactive) | > 1.58 µM (inactive) | > 10 µM (inactive) | > 5.01 µM (inactive) | 0.251 µM (active) | > 10 µM (inactive) | 5.01 µM (active) | > 7.94 µM (inactive) | > 2.51 µM (inactive) | > 2 µM (inactive) |  | 
4 | > 50.1 µM (inactive) | > 63.1 µM (inactive) | Cc1nn(C)c2sc3c(=O)[nH]cnc3c12 |  |  |  |  |  |  |  |  |  |  |  |  |  |  |  |  |  | > 63.1 µM (inactive) | Ki [21]: > 63.1 µM (inactive)
5 |  |  | Cc1c(/N=C2\C=CC(=O)c3ccccc32)c(=O)n(-c2ccccc2)n1C |  | 20.6 µM (active) | 88.6 µM (active) |  |  |  |  |  |  |  |  |  |  |  |  |  |  |  | 
6 |  |  | COc1cc2c(cc1F)C(c1ccccc1Cl)=Nc1c(n[nH]c1C)N2 [RG-1530] |  |  |  | > 6.31 µM (inactive) | 0.0251 µM (active) | > 10 µM (inactive) | > 7.94 µM (inactive) | > 1.58 µM (inactive) | 1.26 µM (active) | > 10 µM (inactive) | 0.1 µM (active) | > 7.94 µM (inactive) | 0.0398 µM (active) | 3.98 µM (active) | 3.16 µM (active) | > 2.51 µM (inactive) | 0.126 µM (active) | > 1.58 µM (inactive) | Ki [21]: 0.0251 µM (active)
